Consider 23 compounds from patent US9062028B2, “Bicyclic nitrogen containing heteroaryl TGR5 receptor modulators” (Bristol-Myers Squibb Company, priority 2011, dated 2015).

Structures can show the parent of a compound that is named as a salt.

The target of the experiment is T1, recombinant human TGR5 (Homo sapiens, UniProt Q8TDU6).
T1 construct: expressed in transfected cells
T1 sequence (Q8TDU6 1-330): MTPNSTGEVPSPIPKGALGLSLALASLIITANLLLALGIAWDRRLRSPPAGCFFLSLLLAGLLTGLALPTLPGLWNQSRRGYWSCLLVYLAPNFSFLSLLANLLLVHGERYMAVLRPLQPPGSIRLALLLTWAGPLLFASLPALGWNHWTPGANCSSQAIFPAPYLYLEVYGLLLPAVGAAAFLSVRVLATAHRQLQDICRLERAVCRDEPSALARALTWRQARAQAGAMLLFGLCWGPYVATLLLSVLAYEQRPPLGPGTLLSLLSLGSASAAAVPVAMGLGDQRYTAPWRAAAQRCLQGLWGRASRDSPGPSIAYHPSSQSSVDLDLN
Put plainly: cAMP assay (cAMP accumulation, HTRF) in CHOK1 cells stably expressing TGR5. The experiment is classed as cell-based. The following applies: CHOK1 cells stably expressing human TGR5, 30 minutes at RT, 1% DMSO. The procedure: The in vitro modulation of recombinant human TGR5 was determined as follows.
A human TGR5 expression construct of human TGR5 was integrated into the genome of a CHOK1 cell line (Invitrogen). Once a stable CHOK1 cell line was generated, the cells were incubated for 5-10 minutes in culture medium consisting of F-12 (Invitrogen#11765-047) supplemented with 10% fetal bovine serum.
On the day of the cAMP accumulation assay, cells stably expressing the […] TGR5 construct were centrifuged at 1000 rpm for 5 minutes. The medium was aspirated and the cells were resuspended in 5 mL of assay buffer (phosphate-buffered saline with Ca^2+ and Mg^2+, Invitrogen#14040). The cells were counted using 1:2 dilution and then adjusted to 0.4-0.5×10^6 cells/mL in assay buffer, if necessary. Isobutylmethylxanthine (IBMX, Sigma#I5879) was added via a 1:5000 dilution to make a 0.1 mM final concentration and then 10 μL of the media were transferred to each well of a 384 well poly-D-lysine coated solid white plate (BD #35-6661) pre-dotted with 100 nL of with the desired concentration of compound added from a concentrated stock dissolved in dimethyl sulfoxide (DMSO) to give a final concentration of 1% DMSO in the assay. The plates were covered and incubated for 30 minutes at RT. cAMP accumulation was measured using the CisBio homogeneous time resolved fluorescence (HTRF) assay kit (#62AM2PEC) following the manufacturer's protocol. Briefly, 5 μl each of the cAMP-HTRF fluorescence detection reagents were added to each well, and the samples were incubated for at least one hour at room temperature. Fluorescence was excited at 320 nm and measured at 665 and 620 nm using the Envision instrument (Perkin Elmer), the fluorescence ratio of 665/620 was calculated and converted to nanomolar concentrations of cAMP in each well by interpolation from a cAMP standard curve. The concentration-response curves and EC50 values were calculated with a four parameter logistic curve fit equation utilizing Excel/XLfit software (Microsoft and IDBS). The EC50 value was calculated as the concentration of agonist which increased the cAMP concentration to a value halfway between the baseline and the maximum.
Background: Cyclic AMP is a second messenger, typically raised through Gs and lowered through Gi signalling.
As a reminder, the EC50 is the concentration at which the effect is half-maximal. `Cc1cccc(OCCCC(=O)N2CCCc3c(-c4cnn(C(C)c5cccc(NC(=O)NCCS(=O)(=O)O)c5)c4)cccc32)c1C` (centres unmarked) [Example 82, 2-(3-(3-(1-(4-(1-(4-(2,3-Dimethylphenoxy)butanoyl)-1,2,3,4-tetrahydroquinolin-5-yl)-1H-pyrazol-1-yl)ethyl)phenyl)ureido)ethanesulfonic acid]: the 50% effective concentration (EC50) stood at 646 nM. With `Cc1cccc(OCCCC(=O)N2CCCc3c(-c4cnn(Cc5cccc(NC(=O)NCC(=O)O)c5)c4)cccc32)c1C` [Example 83, 2-(3-(3-((4-(1-(4-(2,3-Dimethylphenoxy)butanoyl)-1,2,3,4-tetrahydroquinolin-5-yl)-1H-pyrazol-1-yl)methyl)phenyl)ureido)acetic acid], the EC50 is 107 nM. The figure for `Cc1cccc(OCCCC(=O)N2CCCc3c(-c4cnn(CCNC(=O)NCC(=O)O)c4)cccc32)c1C` [Example 110G, 2-(3-(2-(4-(1-(4-(2,3-Dimethylphenoxy)butanoyl)-1,2,3,4-tetrahydroquinolin-5-yl)-1H-pyrazol-1-yl)ethyl)ureido)acetic acid] is 3140 nM; for `Cc1cccc(OCCCC(=O)N2CCCc3c(-c4cnn(CCNC(=O)C5(C(=O)O)CC5)c4)cccc32)c1C` [Example 110H, 1-(2-(4-(1-(4-(2,3-Dimethylphenoxy)butanoyl)-1,2,3,4-tetrahydroquinolin-5-yl)-1H-pyrazol-1-yl)ethylcarbamoyl) cyclopropanecarboxylic acid] it is 6560 nM; for `Cc1cccc(OCCCC(=O)N2CCCc3c(-c4cnn(CCNC(=O)CC(=O)O)c4)cccc32)c1C` [Example 110J, 3-(2-(4-(1-(4-(2,3-Dimethylphenoxy)butanoyl)-1,2,3,4-tetrahydroquinolin-5-yl)-1H-pyrazol-1-yl)ethylamino)-3-oxopropanoic acid] it is 3300 nM.

In the case of `Cc1cccc(OCCCC(=O)N2CCCc3c(-c4cnn(CCNC(=O)C5(C(=O)NCCS(=O)(=O)O)CC5)c4)cccc32)c1C` [Example 110K, 2-(1-(2-(4-(1-(4-(2,3-Dimethylphenoxy)butanoyl)-1,2,3,4-tetrahydroquinolin-5-yl)-1H-pyrazol-1-yl)ethylcarbamoyl)cyclopropanecarboxamido) ethanesulfonic acid], the EC50 was 5000 nM.

Regarding `Cc1cccc(OCCCC(=O)N2CCCc3c(-c4cnn(Cc5cccc(S(=O)(=O)NCCS(=O)(=O)O)c5)c4)cccc32)c1C` [Example 110T, 2-(3-((4-(1-(4-(2,3-Dimethylphenoxy)butanoyl)-1,2,3,4-tetrahydroquinolin-5-yl)-1H-pyrazol-1-yl)methyl)phenylsulfonamido) ethanesulfonic acid], the EC50 was found to be 609 nM. On to `Cc1cccc(OCCCC(=O)N2CCCc3c(-c4nnn(Cc5cccc(C(=O)O)c5)n4)cccc32)c1C` [Example 112, 3-((5-(1-(4-(2,3-Dimethylphenoxy)butanoyl)-1,2,3,4-tetrahydroquinolin-5-yl)-2H-tetrazol-2-yl)methyl)benzoic acid], for which the 50% effective concentration (EC50) is 145 nM. The figure for `Cc1cccc(OCCCC(=O)N2CCCc3c(-c4ccc(OCc5cccc(C(=O)O)c5)cn4)cccc32)c1C` [Example 123, 3-((6-(1-(4-(2,3-Dimethylphenoxy)butanoyl)-1,2,3,4-tetrahydroquinolin-5-yl)pyridin-3-yloxy)methyl)benzoic acid] is 1270 nM.

For the compound `Cc1cccc(OCCCC(=O)N2CCCc3c(-c4cnc(OCC(=O)O)nc4)cccc32)c1C` [Example 124, 2-(5-(1-(4-(2,3-Dimethylphenoxy)butanoyl)-1,2,3,4-tetrahydroquinolin-5-yl)pyrimidin-2-yloxy)acetic acid, TFA salt], the EC50 amounted to 5000 nM. In the case of `Cc1cccc(OCCCC(=O)N2CCCc3c(-c4cccc(C(=O)NCC(=O)O)c4)cccc32)c1C` [Example 138, 2-(3-(1-(4-(2,3-Dimethylphenoxy)butanoyl)-1,2,3,4-tetrahydroquinolin-5-yl)benzamido)acetic acid], the concentration giving a half-maximal response (EC50) was 3460 nM. As to `Cc1cccc(OCCCC(=O)N2CCCOc3c(-c4cnn(Cc5ccc(C(=O)NCCC(=O)O)cc5)c4)cccc32)c1C` [Example 142, 3-(4-((4-(5-(4-(2,3-Dimethylphenoxy)butanoyl)-2,3,4,5-tetrahydrobenzo[b][1,4]oxazepin-9-yl)-1H-pyrazol-1-yl)methyl)benzamido)propanoic acid], the EC50 is 647 nM. Consider `Cc1c(Cl)cccc1OCCCC(=O)N1CCCOc2c(-c3cnn(Cc4cccc(C(=O)NCS(=O)(=O)O)c4)c3)cccc21` [Example 146R, (3-((4-(5-(4-(3-Chloro-2-methylphenoxy)butanoyl)-2,3,4,5-tetrahydrobenzo[b][1,4]oxazepin-9-yl)-1H-pyrazol-1-yl)methyl)benzamido) methanesulfonic acid], for which the EC50 was determined as 49 nM. With `Cc1cccc(OCCCC(=O)N2CCCc3c(-c4cnn(C(C)(C)C(=O)NCCS(=O)(=O)O)c4)cccc32)c1C` [Example 146Y, 2-(2-(4-(1-(4-(2,3-Dimethylphenoxy)butanoyl)-1,2,3,4-tetrahydroquinolin-5-yl)-1H-pyrazol-1-yl)-2-methylpropanamido)ethanesulfonic acid], the EC50 was found to be 2860 nM. With `Cc1cccc(OCCCC(=O)N2CCCc3c(-c4cccc(C(=O)NCCS(=O)(=O)O)c4)cccc32)c1C` [Example 148, 2-(3-(1-(4-(2,3-Dimethylphenoxy)butanoyl)-1,2,3,4-tetrahydroquinolin-5-yl)benzamido) ethanesulfonic acid], the EC50 was 3310 nM. As for `Cc1cccc(OCCCC(=O)N2CCCc3c(-c4cccc(COC(=O)NC[C@H](NC(=N)N)C(=O)O)c4)cccc32)c1C` [Example 168F, (S)-3-((3-(1-(4-(2,3-Dimethylphenoxy)butanoyl)-1,2,3,4-tetrahydroquinolin-5-yl)benzyloxy)carbonylamino)-2-guanidinopropanoic acid], the EC50 was 590 nM. For the compound `Cc1cccc(OCCCC(=O)N2CCCc3c(-c4cnn(Cc5cccc(C(=O)NCCS(=O)(=O)O)c5)c4C)cccc32)c1C` [Example 168J, 2-(3-((4-(1-(4-(2,3-Dimethylphenoxy)butanoyl)-1,2,3,4-tetrahydroquinolin-5-yl)-5-methyl-1H-pyrazol-1-yl)methyl)benzamido) ethanesulfonic acid], the EC50 was found to be 643 nM. For `Cc1cccc(OCCCC(=O)N2CCCc3c(-c4ccn(Cc5cccc(C(=O)NCCS(=O)(=O)O)c5)c4)cccc32)c1C` [Example 168N], the EC50 is 4370 nM. Consider `Cc1cccc(OCCCC(=O)N2CCCc3c(-c4cnn(Cc5c(F)cc(C(=O)NCCC[C@H](NC(=N)N)C(=O)O)cc5Cl)c4)cccc32)c1C` [Example 171, (S)-5-(3-Chloro-4-((4-(1-(4-(2,3-dimethylphenoxy)butanoyl)-1,2,3,4-tetrahydroquinolin-5-yl)-1H-pyrazol-1-yl)methyl)-5-fluorobenzamido)-2-guanidinopentanoic acid, TFA salt], for which the half-maximal effective concentration (EC50) worked out at 56 nM. As to `Cc1cccc(OCCCC(=O)N2CCCc3c(-c4cnn(Cc5c(F)cc(C(=O)NCCC(=O)O)cc5Cl)c4)cccc32)c1C` [Example 176, 3-(3-Chloro-4-((4-(1-(4-(2,3-dimethylphenoxy)butanoyl)-1,2,3,4-tetrahydroquinolin-5-yl)-1H-pyrazol-1-yl)methyl)-5-fluorobenzamido) propanoic acid], the concentration for a half-maximal effect (EC50) worked out at 47 nM. Under `Cc1cccc(OCCCC(=O)N2CCCc3c(-c4cnn(Cc5c(F)cc(C(=O)NCC(=O)O)cc5Cl)c4)cccc32)c1C` [Example 177, 2-(3-Chloro-4-((4-(1-(4-(2,3-dimethylphenoxy)butanoyl)-1,2,3,4-tetrahydroquinolin-5-yl)-1H-pyrazol-1-yl)methyl)-5-fluorobenzamido)acetic acid] stands 48 nM; under `Cc1cccc(OCCCC(=O)N2CCCc3c(-c4cnn(Cc5c(F)cc(C(=O)NCS(=O)(=O)O)cc5Cl)c4)cccc32)c1C` [Example 179, (3-Chloro-4-((4-(1-(4-(2,3-dimethylphenoxy)butanoyl)-1,2,3,4-tetrahydroquinolin-5-yl)-1H-pyrazol-1-yl)methyl)-5-fluorobenzamido)methanesulfonic acid], 45 nM. The figure for `Cc1cccc(OCCOC(=O)N2CCOc3c(-c4cnn(Cc5cccc(C(=O)NCCS(=O)(=O)O)c5)c4)cccc32)c1C` [Example 182, 2-(3-((4-(4-((2-(2,3-Dimethylphenoxy)ethoxy)carbonyl)-3,4-dihydro-2H-benzo[b] [1,4]oxazin-8-yl)-1H-pyrazol-1-yl)methyl)benzamido) ethanesulfonic acid] is 589 nM.
